The values that follow come from paper PMC9029323, “In Silico Identification of Novel Inhibitors Targeting the Homodimeric Interface of Superoxide Dismutase from the Dental Pathogen Streptococcus mutans” (Antioxidants, 2022).

Entries after “also recorded” stand apart in the source; their conditions may differ. Where two headings read alike, the source gives them in different places. Where only a bound is given, the exact number is not on record here.

For assay [1], the system named is Streptococcus mutans ATCC-700610. The assay is described as follows: Broth micro-dilution antibacterial assay (planktonic growth). Conditions: 24 h. Format: cell-based. The protocol: (§1) The bacterial strain used for antimicrobial assays was Streptococcus mutans ATCC-700610. The strain was stored in 15% (v/v) glycerol stocks at −80 °C. Before each experiment, cells were subcultured from the stocks into Trypticase Soy Agar (TSA, cat. PA-254051.06) with 5% Sheep Blood (Becton Dickinson, Sparks, NV, USA) plates at 37 °C in 5% CO2 atmosphere for 48 h.
The antibacterial activity of compounds ALS-31 or ALS-31-9 was assayed in S. mutans cultures by a standard broth micro-dilution method in 96-well polystyrene plates using Brain-Heart Infusion broth (BHI, cat. 255003, Becton Dickinson, Sparks, NV, USA). One hundred microliters of bacterial suspension adjusted to approximately 1.5 × 10^6 CFU/mL were incubated with 100 µL of serial dilutions of the compounds dissolved in final 1.0% (v/v) DMSO as a vehicle. The plates were incubated at 37 °C in 5% CO2 atmosphere for 24 h under shaking (300 rpm). The medium turbidity was measured by a spectrophotometer at 595 nm (Bio-Rad Laboratories Inc., Hercules, CA, USA). Compound-free wells in 1.0% (v/v) DMSO were used as controls (100% planktonic growth), and antibacterial activity was expressed as a percentage of residual growth. Chlorhexidine acetate (CHX, cat. 51094, Sigma-Aldrich, St. Louis, MO, USA) solution (1 mg/mL) was prepared and included as control for the assay of S. mutans’ susceptibility (MIC referred to [51]). Each compound was tested in triplicate; each experiment was performed twice.
A general note: In broth dilution the organism is exposed to a series of concentrations in liquid medium.

The target in assay [2] is T1, Mn–SOD from rat mitochondria (Rattus norvegicus, UniProt P07895).
T1 construct: made in house
T1 sequence (P07895 25-222): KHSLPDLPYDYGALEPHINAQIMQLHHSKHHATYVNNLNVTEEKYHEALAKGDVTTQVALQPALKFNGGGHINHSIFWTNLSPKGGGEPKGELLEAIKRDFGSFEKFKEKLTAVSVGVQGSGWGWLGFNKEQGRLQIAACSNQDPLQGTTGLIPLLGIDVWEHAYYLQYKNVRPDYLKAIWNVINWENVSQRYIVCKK
The experiment in a line: SOD activity assay with Mn-SOD. The assay is classed as biochemical.
From the text: (§2) Purified recombinant forms of SmSOD and StSOD were obtained through a heterologous expression system constituted by the Escherichia coli BL21(DE3) strain transformed with appropriate expression vectors, vSmSOD [11] or vStSOD [12]. These pET-22b(+)- or pET-28b(+)-derived plasmids led to the production of recombinant forms of SmSOD or StSOD, respectively fused to a His-tail, useful for their one-step purification by affinity chromatography, as previously described [11, 12]. The improvement of Mn uptake by SmSOD was realised as previously described [11, 12, 13]. The resulting metal (Fe and Mn) content in the cambialistic enzyme was determined by graphite furnace atomic absorption spectrometry with a Shimadzu ACS-6100 auto sampler [46]. Fe-SOD from Escherichia coli (cat. SRP6107) and the Cu/Zn-SOD from bovine erythrocytes (cat. 574594) were purchased from Sigma–Aldrich. A recombinant form of the eukaryal Mn–SOD from rat mitochondria was prepared as previously described [19]. Protein concentration was determined by the Bradford method, using bovine serum albumin as standard [47]. […] One unit of SOD activity was defined as the amount of enzyme that caused 50% inhibition of cytochrome c reduction.

For another assay, the target named is T2, SmSOD homodimer (Streptococcus mutans serotype c, UniProt P09738).
T2 construct: His-tail; made in house; host or cells: Escherichia coli BL21(DE3), vector vSmSOD (pET-22b(+)-derived)
T2 sequence (P09738 2-203): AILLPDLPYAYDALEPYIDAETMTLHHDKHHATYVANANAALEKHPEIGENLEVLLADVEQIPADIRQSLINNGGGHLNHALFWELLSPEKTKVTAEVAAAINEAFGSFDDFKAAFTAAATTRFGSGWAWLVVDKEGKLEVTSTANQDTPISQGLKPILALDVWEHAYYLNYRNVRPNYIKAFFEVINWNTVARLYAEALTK
The experiment in a line: Size exclusion chromatography (gel-filtration) of SmSOD. The protocol: The oligomerization status of SmSOD was analyzed by gel-filtration on a Superdex^TM 75 10/300 GL column (GE Healthcare) connected to an FPLC^TM system. The column was equilibrated and eluted at 0.5 mL/min at room temperature (20–24 °C) with a 20 mM Tris•HCl buffer, pH 7.8, containing 150 mM KCl and 1% (v/v) DMSO. However, where indicated, the equilibration and elution buffer also contained 200 µM inhibitor. The protein molecular mass standards used for calibration of the size exclusion chromatography were bovine serum albumin (68 kDa), egg albumin (46 kDa), carbonic anhydrase (30 kDa) and cytochrome c (12.4 kDa).
Figure 4 Effect of ALS-31 on gel-filtration of SmSOD. A protein sample of SmSOD, 63 µM in 20 mM Tris•HCl buffer, pH 7.8, supplemented with 150 mM KCl and 1% (v/v) DMSO, was untreated or incubated at room temperature for 20 min with 200 µM ALS-31. The protein sample was then loaded on a Superdex 75 10/300 column and the elution profile was followed by a continuous absorbance monitoring at 280 nm. Untreated SmSOD (black line); SmSOD incubated with 200 µM ALS-31 without (green line) or after the addition of 200 µM ALS-31 in the elution buffer (red line). The elution volumes of bovine serum albumin (9.56 mL), egg albumin (10.44 mL), carbonic anhydrase (11.72 mL) and cytochrome c (13.51 mL), used as standard protein markers, are indicated by inverted triangles. Their position was unaffected by the addition of ALS-31 in equilibration and elution buffer.

The target of assay [3] is T3, SmSOD (Streptococcus mutans serotype c, UniProt P09738).
T3 construct: His-tail; made in house; host or cells: Escherichia coli BL21(DE3), vector vSmSOD (pET-22b(+)-derived)
T3 sequence (P09738 2-203): as above
The experiment in a line: Gel electrophoresis of SmSOD under not denaturing conditions. The conditions noted are these: 7 to 51 µM protein, preincubation with 488 µM compound; not shown. An excerpt:
The putative reversible interaction between SmSOD and ALS-31 was further investigated through the behaviour of this enzyme in gel electrophoresis. […] Therefore, the reversible and non-covalent interaction between SmSOD and ALS-31 allowed the disassemblage of the enzyme and consequently its inhibition, only when a proper concentration of the inhibitor remained in contact with the enzyme.

The subject of assay [4] is Streptococcus mutans ATCC-700610. The assay is described as follows: Crystal violet staining biofilm biomass assay. The conditions noted are these: 24 h. The assay is classed as cell-based. The protocol:
as §1
The crystal violet (CV) staining method was used to measure biofilm biomass formed in flat-bottomed 96-well microplates in the presence of ALS-31 or ALS-31-9, as described by Stepanović et al., with some modifications. A bacterial suspension of approximately 1.5 × 10^6 CFU/mL in BHI supplemented with 1% (w/v) glucose was prepared, and 100-µL aliquots of this suspension were incubated with 100 µL of serial dilutions of each compound. The microplate was incubated at 37 °C for 24 h, after which the non-adherent cells were gently aspirated and the wells gently rinsed with PBS (Sigma–Aldrich). The adhered biofilm was dried at 60 °C for 30 min and subsequently stained with 0.1% (w/v) crystal violet solution for 30 min. After washing with PBS and solubilization with absolute ethanol to release the dye from the biofilm, the plate was read at 570 nm in a spectrophotometer. The absorbance recorded was related to the amount of biofilm produced. The reduction in the mass of the biofilm was expressed as a percentage by using the formula [(Ac-At)/Ac] × 100, where Ac is the OD570 for the control wells and At is the OD570 in the presence of the tested compound.

A further assay concerns the target cambialistic StSOD (Streptococcus thermophilus, UniProt Q5M4Z1). The experiment in a line: SOD activity assay with StSOD. Format: biochemical.
In assay [5] the target is T4, Fe-SOD from Escherichia coli (Escherichia coli, UniProt P0AGD3).
T4 construct: purchased Sigma–Aldrich SRP6107
T4 sequence (P0AGD3 2-193): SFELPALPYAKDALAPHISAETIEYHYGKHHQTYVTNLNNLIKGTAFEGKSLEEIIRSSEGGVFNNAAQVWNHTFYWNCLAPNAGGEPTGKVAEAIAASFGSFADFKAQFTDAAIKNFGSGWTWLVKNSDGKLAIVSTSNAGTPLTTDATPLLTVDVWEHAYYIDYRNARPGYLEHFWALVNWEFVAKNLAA
The experiment in a line: SOD activity assay with Fe-SOD. The assay is classed as biochemical.
From the text: as §2

In assay [6] the target is T3, SmSOD. The experiment in a line: SOD activity assay (inhibition of cytochrome c reduction, xanthine/xanthine oxidase method) with SmSOD. Format: biochemical.
From the text: as §2

cambialistic StSOD, sequence (Q5M4Z1 entry or part of it): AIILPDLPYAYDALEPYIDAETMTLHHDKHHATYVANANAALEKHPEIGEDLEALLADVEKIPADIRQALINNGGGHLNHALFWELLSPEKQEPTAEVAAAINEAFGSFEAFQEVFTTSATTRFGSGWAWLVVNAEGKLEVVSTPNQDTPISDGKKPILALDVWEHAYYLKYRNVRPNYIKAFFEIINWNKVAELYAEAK
From the text for cambialistic StSOD: as §2

In the case of `CSCCC(NC(=O)COc1ccc2c3c(c(=O)oc2c1)CCCC3)C(=O)NCCC(=O)O` (stereo not drawn) [ALS-31], the “percentage of planktonic growth of S. mutans” value is reported as 74.3 ± 4.5% in assay [1] (104 µM) and 50.7 ± 4.2% in assay [1] (209 µM). The “concentration up to which no antimicrobial activity is displayed in S. mutans suspensions” value in assay [1] is at most 50 µM. Besides, the IC50 in assay [2] was determined as 161 ± 56 µM; at cambialistic StSOD it was 218 ± 50 µM; in assay [5], 123 ± 20 µM; on SmSOD [6] (Mn-basal SmSOD, read-out: IC50 (concentration leading to 50% inhibition of SmSOD activity)), 159 µM; at SmSOD [6] (Mn-enriched SmSOD, basal Mn content 2.7-fold improved after metal exchange, read-out: IC50 in the Mn-enriched enzyme), 262 ± 11 µM. The “calculated molecular mass of SmSOD major peak” value at SmSOD homodimer (200 µM compound in equilibration and elution buffer, untreated SmSOD 51.8 kDa) is recorded as 23.2 kDa. Also, the “quaternary structure of SmSOD in gel-filtration” value on SmSOD homodimer (200 µM compound in protein sample and elution buffer) is recorded as “dissociation of the SmSOD homodimer in two monomers”. Also, the “elution of SmSOD compared with untreated sample” value at SmSOD homodimer (SmSOD incubated with 200 µM compound before loading, no compound in elution buffer) is “almost identical elution”. On SmSOD [3], the “electrophoretic mobility of SmSOD” value is “no change”. In assay [4] (Streptococcus mutans, ATCC700610, 52.5 µM, read-out: inhibition of biofilm biomass formation), the inhibition at 52.5 µM was 68.2%. In addition, the “effect on biofilm formation” value in assay [4] (serial dilutions from 52.5 µM) is listed as “no effects”. Besides, on SmSOD [6] (20 µM compound, activity of SmSOD in the absence of compound equal to 100, read-out: Residual SOD Activity (%) in the Presence of [Compound]), the remaining activity at 20 µM was 92%. Besides, the remaining activity at 50 µM at SmSOD [6] (50 µM compound, activity of SmSOD in the absence of compound equal to 100, Table 1, read-out: Residual SOD Activity (%) in the Presence of [Compound]) worked out at 71%. In addition, on SmSOD [6] (read-out: Residual SOD Activity (%) in the Presence of [Compound]), the remaining activity at 100 µM came out at 56%. Also, the “effect on SmSOD activity (in words)” value on SmSOD [6] (screening concentrations or inhibition profile up to 300 µM) was “dose-dependent reduction; also recorded: evident dose-dependent inhibition”.

Usually inhibition stands for how much of the control response was suppressed.
